Measurements reported in patent US5252598A, “Labdane derivatives, a process for their preparation, and their use as medicaments” (Hoechst Aktiengesellschaft, priority 1987, dated 1993).
≈ marks a conversion by molar mass, not a printed value. Counter-ions that a name gives are not always drawn.

These compounds were tested on Guinea pig atrium (assay: Positive inotropic activity (contractility of isolated guinea pig atrium)). Details: Cavia porcellus, isolated left and right atria, Ringer's solution, 32° C., contractility recorded 7 to 10 minutes.
Format: cell-based
Procedure: Guineapigs of both sexes and weighing 400 g were sacrificed, and the heart was removed and placed in Ringer's solution at room temperature. Both the left and the right atria were then isolated and fixed in an organ holder, and the preparation was placed in an organ bath containing Ringer's solution and maintained at a temperature of 32° C. Carbogen (95% O2 and 5% CO2) was then bubbled through the organ bath. The compound to be tested is dissolved directly in water together with a stoichiometric amount of 0.1N HCL or a salt thereof to give a solution of known concentration and the latter is added to the bath. The contractility of the atrium is recorded for 7 to 10 minutes on a Nihon Kohden 4-channel pen recorder with an isometric strain gage. The activity is expressed on the basis of the resulting data as the EC50.

Structure (SMILES) | EC50 [µg/mL]
C=C[C@@]1(C)CC(=O)[C@@]2(O)[C@](C)(O1)[C@@H](OC(=O)CCCCN1CCOCC1)C=C1C(C)(C)CC[C@H](O)[C@@]12C | 0.17 (≈ 0.327 µM)
C=C[C@@]1(C)CC(=O)[C@@]2(O)[C@](C)(O1)[C@@H](OC(=O)CN1CCC(O)(c3ccccc3)CC1)C=C1C(C)(C)CC[C@H](O)[C@@]12C | 0.3 (≈ 0.528 µM)
C=C[C@@]1(C)CC(=O)[C@@]2(O)[C@](C)(O1)[C@@H](OC(=O)COC(=O)CN1CCCCC1)C=C1C(C)(C)CC[C@H](O)[C@@]12C | 3 (≈ 5.62 µM)
C=C[C@@]1(C)CC(=O)[C@@]2(O)[C@](C)(O1)[C@@H](OC(=O)COC(=O)CN1CCOCC1)C=C1C(C)(C)CC[C@H](O)[C@@]12C | 1 (≈ 1.87 µM)
C=C[C@@]1(C)CC(=O)[C@@]2(O)[C@](C)(O1)[C@@H](OC(=O)COC(=O)CN1CC(C)OC(C)C1)C=C1C(C)(C)CC[C@H](O)[C@@]12C (some centres unmarked) | 0.72 (≈ 1.28 µM)
C=C[C@@]1(C)CC(=O)[C@@]2(O)[C@](C)(O1)[C@@H](OC(=O)COC(=O)CN1CCN(C)CC1)C=C1C(C)(C)CC[C@H](O)[C@@]12C | 0.44 (≈ 0.802 µM)
C=C[C@@]1(C)CC(=O)[C@@]2(O)[C@](C)(O1)[C@@H](OC(=O)COC(=O)CCN1CCN(C)CC1)C=C1C(C)(C)CC[C@H](O)[C@@]12C | 1 (≈ 1.78 µM)
C=C[C@@]1(C)CC(=O)[C@@]2(O)[C@](C)(O1)[C@@H](OC(=O)CN(CC)CC)C=C1C(C)(C)CC[C@H](O)[C@@]12C [COCH2 N(C2 H5)2, 7β-Diethylaminoacetoxy-1α,9α-dihydroxy-8,13-epoxy-labd-5,14-dien-11-one hydrochloride] | 0.72
C=C[C@@]1(C)CC(=O)[C@@]2(O)[C@](C)(O1)[C@@H](OC(=O)COC=O)C=C1C(C)(C)CC[C@H](O)[C@@]12C [COCH2 OCHO, 1α,9α-dihydroxy-8,13-epoxy-7β-formyloxyacetoxylabda-5,14-dien-11-one] | 0.024 (≈ 0.055 µM)
C=C[C@@]1(C)CC(=O)[C@@]2(O)[C@](C)(O1)[C@@H](OC(=O)COC(=O)CN(CC)CC)C=C1C(C)(C)CC[C@H](O)[C@@]12C [COCH2 OCOCH2 NEt2, hydrochloride hydrate] | 0.018
C=C[C@@]1(C)CC(=O)[C@@]2(O)[C@](C)(O1)[C@@H](OC(=O)COC(=O)CN(C)C)C=C1C(C)(C)CC[C@H](O)[C@@]12C [COCH2 OCOCH2 NMe2, 1α,9α-Dihydroxy-7β-(N,N-dimethylaminoacetoxy)acetoxy-8,13-epoxy-labd-5,14-dien-11-one hydrochloride] | 0.8

Further lines, results first:

EC50 [µg/mL] | Structure (SMILES)
0.24 (≈ 0.504 µM) | C=C[C@@]1(C)CC(=O)[C@@]2(O)[C@](C)(O1)[C@@H](OC(=O)N1CCN(C)CC1)C=C1C(C)(C)CC[C@H](O)[C@@]12C
0.079 (≈ 0.156 µM) | C=C[C@@]1(C)CC(=O)[C@@]2(O)[C@](C)(O1)[C@@H](OC(=O)CN1CC(C)OC(C)C1)C=C1C(C)(C)CC[C@H](O)[C@@]12C (some centres unmarked)
0.28 (≈ 0.572 µM) | C=C[C@@]1(C)CC(=O)[C@@]2(O)[C@](C)(O1)[C@@H](OC(=O)CCN1CCCCC1)C=C1C(C)(C)CC[C@H](O)[C@@]12C
0.3 (≈ 0.594 µM) | C=C[C@@]1(C)CC(=O)[C@@]2(O)[C@](C)(O1)[C@@H](OC(=O)CCN1CCN(C)CC1)C=C1C(C)(C)CC[C@H](O)[C@@]12C
0.12 (≈ 0.231 µM) | C=C[C@@]1(C)CC(=O)[C@@]2(O)[C@](C)(O1)[C@@H](OC(=O)CCCN1CCN(C)CC1)C=C1C(C)(C)CC[C@H](O)[C@@]12C
0.14 (≈ 0.284 µM) | C=C[C@@]1(C)CC(=O)[C@@]2(O)[C@](C)(O1)[C@@H](OC(=O)CN1CCSCC1)C=C1C(C)(C)CC[C@H](O)[C@@]12C
0.058 (≈ 0.125 µM) | C=C[C@@]1(C)CC(=O)[C@@]2(O)[C@](C)(O1)[C@@H](OC(=O)CCCN(C)C)C=C1C(C)(C)CC[C@H](O)[C@@]12C [CO(CH2)3 N(CH3)2, 1α,9α-Dihydroxy-7β-(4-N,N-dimethylaminobutyryloxy)8,13-epoxylabda-5,14-dien-11-one]
0.037 (≈ 0.0753 µM) | C=C[C@@]1(C)CC(=O)[C@@]2(O)[C@](C)(O1)[C@@H](OC(=O)CCCN(CC)CC)C=C1C(C)(C)CC[C@H](O)[C@@]12C [CO(CH2)3 NEt2, 1α,9α-Dihydroxy-7β-(4-diethylaminobutyryloxy)-8,13-epoxylabda-5,14-dien-11-one]
0.755 (≈ 1.58 µM) | C=C[C@@]1(C)CC(=O)[C@@]2(O)[C@](C)(O1)[C@@H](OC(=O)CCCCN(C)C)C=C1C(C)(C)CC[C@H](O)[C@@]12C [CO(CH2)4 NMe2, 1α,9α-Dihydroxy-7β-(5-dimethylaminovaleryloxy)-8,13-epoxylabda-5,14-dien-11-one]
0.028 (≈ 0.0713 µM) | C=C[C@@]1(C)CC(=O)[C@@]2(O)[C@](C)(O1)[C@@H](OC(C)=O)C=C1C(C)(C)CC[C@H](O)[C@@]12C [COCH3]
0.051 (≈ 0.125 µM) | C=C[C@@]1(C)CC(=O)[C@@]2(O)[C@](C)(O1)[C@@H](OC(=O)NC)C=C1C(C)(C)CC[C@H](O)[C@@]12C [CONHCH3]
0.0008 (≈ 0.00182 µM) | C=C[C@@]1(C)CC(=O)[C@@]2(O)[C@](C)(O1)[C@@H](OC(=O)[C@H](O)CO)C=C1C(C)(C)CC[C@H](O)[C@@]12C [drawing 82]
0.3 (≈ 0.647 µM) | C=C[C@@]1(C)CC(=O)[C@@]2(O)[C@](C)(O1)[C@@H](OC(=O)N1CCOCC1)C=C1C(C)(C)CC[C@H](O)[C@@]12C [drawing 83]
0.072 (≈ 0.151 µM) | C=C[C@@]1(C)CC(=O)[C@@]2(O)[C@](C)(O1)[C@@H](OC(=O)CN1CCCCC1)C=C1C(C)(C)CC[C@H](O)[C@@]12C [drawing 92]

Same assay, conditions: isolated left and right atria, Ringer's solution, 32° C., contractility recorded 7 to 10 minutes

Guinea pig atrium EC50 [µg/mL] | Structure (SMILES)
0.615 | C=C[C@@]1(C)CC(=O)[C@@]2(O)[C@](C)(O1)[C@@H](OC(=O)CCCCN(C)C)C=C1C(C)(C)CC[C@H](O)[C@@]12C [CO(CH2)4 NMe2, 1α,9α-Dihydroxy-7β-(5-dimethylaminovaleryloxy)-8,13-epoxylabda-5,14-dien-11-one]

Each compound was assayed on conscious rabbits (assay: Reduction in intraocular pressure in conscious rabbits). Details: rabbit, instilled into one eye, dose percentage 0.25.
Format: in vivo
Procedure: For this experiment rabbits of both sexes and weighing 2 to 3 kg are used. The intraocular pressure (IOP) is measured with a Schioetz tonometer after corneal anesthesia with 2% strength novocaine solution. […] […] The IOP is measured at defined time intervals, i.e. after 0.5, 1, 2, 3, 4 and 5 hours. The percentage reduction in the IOP is calculated using the baseline value.

Structure (SMILES) | % decrease in IOD [%] | Duration (decrease in IOD) [min]
C=C[C@@]1(C)CC(=O)[C@@]2(O)[C@](C)(O1)[C@@H](OC(=O)[C@H](O)CO)C=C1C(C)(C)CC[C@H](O)[C@@]12C [drawing 101] | 35.0 | > 360

Same assay, conditions: rabbit, instilled into one eye, dose percentage 1.00

Structure (SMILES) | % decrease in IOD [%] | Duration (decrease in IOD) [min]
C=C[C@@]1(C)CC(=O)[C@@]2(O)[C@](C)(O1)[C@@H](OC(=O)N1CCCC1)C=C1C(C)(C)CC[C@H](O)[C@@]12C | 26.0 | 240
C=C[C@@]1(C)CC(=O)[C@@]2(O)[C@](C)(O1)[C@@H](OC(N)=O)C=C1C(C)(C)CC[C@H](O)[C@@]12C [CONH2, 7β-Amino-carbonyloxy-1α,9α-dihydroxy-8,13-epoxy-labd-5,14-dien-11-one] | 30.0 | > 360
C=C[C@@]1(C)CC(=O)[C@@]2(O)[C@](C)(O1)[C@@H](OC(=O)NCCCC)C=C1C(C)(C)CC[C@H](O)[C@@]12C [CONH(CH2)3 CH3] | 27.0 | > 360
C=C[C@@]1(C)CC(=O)[C@@]2(O)[C@](C)(O1)[C@@H](OC(=O)NC)C=C1C(C)(C)CC[C@H](O)[C@@]12C [CONHCH3] | 24.0 | > 360

Same assay, conditions: rabbit, instilled into one eye, dose percentage 2.00

Structure (SMILES) | % decrease in IOD [%] | Duration (decrease in IOD) [min]
C=C[C@@]1(C)CC(=O)[C@@]2(O)[C@](C)(O1)[C@@H](OC(=O)CN1CCOCC1)C=C1C(C)(C)CC[C@H](O)[C@@]12C | 20.3 | 360
C=C[C@@]1(C)CC(=O)[C@@]2(O)[C@](C)(O1)[C@@H](OC(=O)CN1CCN(C)CC1)C=C1C(C)(C)CC[C@H](O)[C@@]12C [drawing 104] | 23.9 | 360

Each compound was assayed on cats (assay: Antihypertensive effect: blood pressure in anesthetized cats). Details: anesthetized cat, i.v., 1 mg/kg.
Format: in vivo
Procedure: Cats of both sexes and weighing 3 to 4 kg were anesthetized with ether and maintained under chloralose anesthesia (70 mg/kg i.v.). Cannulas were placed in the femoral artery and in the femoral vein to record the blood pressure and to administer the medicament, respectively. The blood pressure in the femoral artery was recorded using a Statham P 23 Db pressure transducer on a Nihon-Kohden pen recorder for physiological purposes. The compound to be tested was dissolved, if a salt, in distilled water, otherwise in propylene glycol and administered intravenously. The fall in blood pressure and the duration of the hypotensive activity were determined.

Structure (SMILES) | Decrease in BP [mm Hg] | Duration (hypotensive activity) [min]
C=C[C@@]1(C)CC(=O)[C@@]2(O)[C@](C)(O1)[C@@H](OC(=O)CN1CCCC1)C=C1C(C)(C)CC[C@H](O)[C@@]12C | 40 | 90
C=C[C@@]1(C)CC(=O)[C@@]2(O)[C@](C)(O1)[C@@H](OC(=O)CN(CC)CC)C=C1C(C)(C)CC[C@H](O)[C@@]12C [COCH2 N(C2 H5)2, 7β-Diethylaminoacetoxy-1α,9α-dihydroxy-8,13-epoxy-labd-5,14-dien-11-one hydrochloride] | 36 | > 60
C=C[C@@]1(C)CC(=O)[C@@]2(O)[C@](C)(O1)[C@@H](OC(=O)N1CCOCC1)C=C1C(C)(C)CC[C@H](O)[C@@]12C [drawing 106] | 32 | 45
C=C[C@@]1(C)CC(=O)[C@@]2(O)[C@](C)(O1)[C@@H](OC(=O)CN1CCCCC1)C=C1C(C)(C)CC[C@H](O)[C@@]12C [drawing 107] | 30 | 90
C=C[C@@]1(C)CC(=O)[C@@]2(O)[C@](C)(O1)[C@@H](OC(=O)CN1CCN(C)CC1)C=C1C(C)(C)CC[C@H](O)[C@@]12C [drawing 108] | 40 | > 120
